The record followed here is patent publication US10259810B2, “N-sulfonylated pyrazolo[3,4-b]pyridin-6-carboxamides and method of use” (AbbVie S.à.r.l., priority 2015, dated 2019).

The EC50 is the concentration needed to bring the measured effect to its halfway point.

Test [1] concerns the target T1, ΔF508-CFTR (Homo sapiens, UniProt P13569, DEL508-508).
T1 construct: host or cells: CFBE41o-, doxycycline-inducible
Kind of test: CFTR cell surface levels using HRP-tagged ΔF508-CFTR expressing CFBE cells, in the presence of a co-corrector. It is filed as cell-based. Particulars: HRP-tagged ΔF508-CFTR CFBE cells, in the presence of 3 μM co-corrector; for EC50: read-out: EC50. Put shortly: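 Chemiluminescent read-out of surface HRP (15 min, dark) after PBS washes. Activity is normalized as 100×(sample−DMSO)/(3 μM co-corrector alone−DMSO).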

Test [2] addresses T1, ΔF508-CFTR. The test is described as follows: CFTR cell surface levels using HRP-tagged ΔF508-CFTR expressing CFBE cells, intrinsic corrector capacity. The test is classed as cell-based. Set-up: % Activation: concentration or dose not given beside the values. Particulars: HRP-tagged ΔF508-CFTR expressing CFBE41o- cells, compound alone (intrinsic corrector capacity), 20 hours at 33° C.; for EC50: read-out: EC50. Put shortly:
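Read-out: chemiluminescent HRP activity of ECL4-HRP-tagged ΔF508-CFTR at the cell surface, 15 min substrate in dark. Normalized as 100×(sample−DMSO)/(positive control−DMSO).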

T1 sequence (P13569 with tags, fused parts or gaps DEL508-508): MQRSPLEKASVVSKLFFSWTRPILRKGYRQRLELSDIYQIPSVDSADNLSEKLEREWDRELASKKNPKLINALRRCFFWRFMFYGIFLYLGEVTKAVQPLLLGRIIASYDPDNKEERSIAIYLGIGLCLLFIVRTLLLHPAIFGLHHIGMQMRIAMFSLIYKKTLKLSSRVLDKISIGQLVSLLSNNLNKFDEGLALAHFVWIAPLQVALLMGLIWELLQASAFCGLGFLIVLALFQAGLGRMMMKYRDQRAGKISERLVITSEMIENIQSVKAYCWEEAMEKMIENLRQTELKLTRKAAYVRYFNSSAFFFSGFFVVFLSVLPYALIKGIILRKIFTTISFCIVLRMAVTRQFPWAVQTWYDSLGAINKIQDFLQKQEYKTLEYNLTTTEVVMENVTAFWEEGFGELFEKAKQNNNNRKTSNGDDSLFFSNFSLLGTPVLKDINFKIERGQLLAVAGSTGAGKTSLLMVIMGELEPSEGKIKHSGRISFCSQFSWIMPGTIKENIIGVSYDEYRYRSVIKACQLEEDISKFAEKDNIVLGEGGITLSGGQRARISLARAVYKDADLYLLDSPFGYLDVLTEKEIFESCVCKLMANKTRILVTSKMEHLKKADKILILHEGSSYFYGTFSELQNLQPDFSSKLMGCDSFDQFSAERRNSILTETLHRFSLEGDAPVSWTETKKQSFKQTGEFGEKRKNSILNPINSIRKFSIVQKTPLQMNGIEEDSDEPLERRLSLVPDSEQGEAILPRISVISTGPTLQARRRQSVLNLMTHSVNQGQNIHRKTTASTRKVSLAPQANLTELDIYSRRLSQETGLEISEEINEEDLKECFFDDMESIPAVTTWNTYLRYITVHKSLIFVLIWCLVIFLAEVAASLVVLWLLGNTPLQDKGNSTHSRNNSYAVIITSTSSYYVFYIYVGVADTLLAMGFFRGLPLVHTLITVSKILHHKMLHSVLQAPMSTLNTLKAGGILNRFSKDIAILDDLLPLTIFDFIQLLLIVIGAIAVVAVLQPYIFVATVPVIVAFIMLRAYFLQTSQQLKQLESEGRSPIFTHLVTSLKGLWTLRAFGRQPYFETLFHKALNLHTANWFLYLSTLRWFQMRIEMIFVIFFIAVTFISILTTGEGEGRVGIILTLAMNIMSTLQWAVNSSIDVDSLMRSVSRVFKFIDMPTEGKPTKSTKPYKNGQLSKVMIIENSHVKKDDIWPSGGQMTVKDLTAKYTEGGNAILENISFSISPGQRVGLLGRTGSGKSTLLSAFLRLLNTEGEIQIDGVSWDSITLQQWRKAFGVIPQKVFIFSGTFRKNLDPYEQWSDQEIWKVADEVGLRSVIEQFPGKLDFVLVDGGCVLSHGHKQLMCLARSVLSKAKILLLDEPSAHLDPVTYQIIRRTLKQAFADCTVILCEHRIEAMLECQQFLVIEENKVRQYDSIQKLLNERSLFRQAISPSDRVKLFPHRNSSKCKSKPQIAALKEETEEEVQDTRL

As for `COCCS(=O)(=O)NC(=O)c1cc(N2CCN(C(C)C)CC2)c2c(C3CCC3)nn(-c3ccccc3)c2n1` [Compound 271, 3-cyclobutyl-N-(2-methoxyethanesulfonyl)-1-phenyl-4-[4-(propan-2-yl)piperazin-1-yl]-1H-pyrazolo[3,4-b]pyridine-6-carboxamide], at ΔF508-CFTR [1], the “% Activation” value is 260.47% and the EC50 turned out to be 1020 nM. Also, at ΔF508-CFTR [2], the “% Activation” value turned out to be 63.905% and the EC50 came out at 1950 nM.
As to `COCCS(=O)(=O)NC(=O)c1cc(-c2ccc(N3CCC(C#N)CC3)nc2)c2c(OC3CCOC3)nn(-c3ccccc3)c2n1` (stereo not shown) [Compound 275, 4-[6-(4-cyanopiperidin-1-yl)pyridin-3-yl]-N-(2-methoxyethanesulfonyl)-3-[(oxolan-3-yl)oxy]-1-phenyl-1H-pyrazolo[3,4-b]pyridine-6-carboxamide], on ΔF508-CFTR [1], the “% Activation” value amounted to 269.85% and the EC50 was found to be 138 nM. Besides, on ΔF508-CFTR [2], the “% Activation” value is 138.8% and the EC50 stood at 468 nM.
The matching figures for `COCCS(=O)(=O)NC(=O)c1cc(-c2ccc(N3CCC(C#N)CC3)nc2)c2c(n1)n(-c1ccccc1)nc2[C@H]1C[C@H](C)C1` [Compound 276, 4-[6-(4-cyanopiperidin-1-yl)pyridin-3-yl]-N-(2-methoxyethanesulfonyl)-3-(trans-3-methylcyclobutyl)-1-phenyl-1H-pyrazolo[3,4-b]pyridine-6-carboxamide]: 417.25%, 42.9 nM, 356.7% and 779 nM.
On the same counts, the results for `CS(=O)(=O)NC(=O)c1cc(-c2ccc(N3CCC(C#N)CC3)nc2)c2c(OC3CCOC3)nn(-c3ccccc3)c2n1` (stereo not shown) [Compound 277, 4-[6-(4-cyanopiperidin-1-yl)pyridin-3-yl]-N-(methanesulfonyl)-3-[(oxolan-3-yl)oxy]-1-phenyl-1H-pyrazolo[3,4-b]pyridine-6-carboxamide] are 355.4%, 127 nM, 155.4% and 251 nM.
On the same counts, the results for `CC(C)c1nn(-c2cccc(N(C)C)c2)c2nc(C(=O)NS(C)(=O)=O)cc(OCC3CCOCC3)c12` [Compound 278, 1-[3-(dimethylamino)phenyl]-N-(methanesulfonyl)-4-[(oxan-4-yl)methoxy]-3-(propan-2-yl)-1H-pyrazolo[3,4-b]pyridine-6-carboxamide] are 388.5%, 88.3 nM, 233.7% and 120 nM.
For `CC(C)c1nn(-c2ccc(F)cc2)c2nc(C(=O)NS(C)(=O)=O)cc(N3CCN(C4CCC4)CC3)c12` [Compound 280, 4-(4-cyclobutylpiperazin-1-yl)-1-(4-fluorophenyl)-N-(methanesulfonyl)-3-(propan-2-yl)-1H-pyrazolo[3,4-b]pyridine-6-carboxamide], the “% Activation” value at ΔF508-CFTR [1] was 323.37%; on ΔF508-CFTR [2], 121.9%. For the same molecule, the concentration for a half-maximal effect (EC50) at ΔF508-CFTR [1] and at ΔF508-CFTR [2] was 1010 nM each time.
As to `CS(=O)(=O)NC(=O)c1cc(OCCCN2CCOCC2)c2c(C3CCC3)nn(-c3ccccc3)c2n1` [Compound 281, 3-cyclobutyl-N-(methanesulfonyl)-4-[3-(morpholin-4-yl)propoxy]-1-phenyl-1H-pyrazolo[3,4-b]pyridine-6-carboxamide], at ΔF508-CFTR [1], the “% Activation” value was 398.47% and the EC50 amounted to 242 nM. Besides, at ΔF508-CFTR [2], the “% Activation” value was 230.15% and the concentration for a half-maximal effect (EC50) came to 457 nM.
The matching figures for `CC1(COc2cc(C(=O)NS(C)(=O)=O)nc3c2c(C2CCC2)nn3-c2ccccc2)CC(F)(F)C1` [Compound 282, 3-cyclobutyl-4-[(3,3-difluoro-1-methylcyclobutyl)methoxy]-N-(methanesulfonyl)-1-phenyl-1H-pyrazolo[3,4-b]pyridine-6-carboxamide]: 379.95%, 89 nM, 127.8% and 129 nM.
On the same counts, the results for `CS(=O)(=O)NC(=O)c1cc(OCC2CCCO2)c2c(C3CCC3)nn(-c3ccccc3)c2n1` (stereo not shown) [Compound 283, 3-cyclobutyl-N-(methanesulfonyl)-4-[(oxolan-2-yl)methoxy]-1-phenyl-1H-pyrazolo[3,4-b]pyridine-6-carboxamide] are 326.85%, 265 nM, 141.2% and 477 nM.
The matching figures for `CC(C)c1nn(-c2ccc(F)cc2)c2nc(C(=O)NS(C)(=O)=O)cc(OCC3CCOCC3)c12` [Compound 284, 1-(4-fluorophenyl)-N-(methanesulfonyl)-4-[(oxan-4-yl)methoxy]-3-(propan-2-yl)-1H-pyrazolo[3,4-b]pyridine-6-carboxamide]: 348.7%, 220 nM, 154.4% and 276 nM.
As for `CC(C)c1nn(-c2ccc(F)cc2)c2nc(C(=O)NS(C)(=O)=O)cc(OCCC3CCOCC3)c12` [Compound 285, 1-(4-fluorophenyl)-N-(methanesulfonyl)-4-[2-(oxan-4-yl)ethoxy]-3-(propan-2-yl)-1H-pyrazolo[3,4-b]pyridine-6-carboxamide], on ΔF508-CFTR [1], the “% Activation” value is reported as 327.57% and the half-maximal effective concentration (EC50) turned out to be 246 nM. Besides, at ΔF508-CFTR [2], the “% Activation” value was found to be 125.5% and the EC50 worked out at 294 nM.
The matching figures for `COCC1CCN(c2cc(C(=O)NS(=O)(=O)c3cn(C)cn3)nc3c2c(C2CCC2)nn3-c2ccccc2)CC1` [Compound 286, 3-cyclobutyl-4-[4-(methoxymethyl)piperidin-1-yl]-N-(1-methyl-1H-imidazole-4-sulfonyl)-1-phenyl-1H-pyrazolo[3,4-b]pyridine-6-carboxamide]: 500.55%, 159 nM, 264% and 327 nM.
The matching figures for `COCC1CCN(c2cc(C(=O)NS(=O)(=O)c3c(C)noc3C)nc3c2c(C2CCC2)nn3-c2ccccc2)CC1` [Compound 287, 3-cyclobutyl-N-(3,5-dimethyl-1,2-oxazole-4-sulfonyl)-4-[4-(methoxymethyl)piperidin-1-yl]-1-phenyl-1H-pyrazolo[3,4-b]pyridine-6-carboxamide]: 450.9%, 128 nM, 204.9% and 183 nM.
The matching figures for `COCC1CCN(c2cc(C(=O)NS(=O)(=O)CCCN(C)C)nc3c2c(C(C)C)nn3-c2ccc(F)cc2)CC1` [Compound 290, N-[3-(dimethylamino)propane-1-sulfonyl]-1-(4-fluorophenyl)-4-[4-(methoxymethyl)piperidin-1-yl]-3-(propan-2-yl)-1H-pyrazolo[3,4-b]pyridine-6-carboxamide]: 382.2%, 536 nM, 200.4% and 617 nM.
Turning to `CC(C)c1nn(-c2ccc(F)cc2)c2nc(C(=O)NS(C)(=O)=O)cc(OCCCN3CCOCC3)c12` [Compound 292, 1-(4-fluorophenyl)-N-(methanesulfonyl)-4-[3-(morpholin-4-yl)propoxy]-3-(propan-2-yl)-1H-pyrazolo[3,4-b]pyridine-6-carboxamide], the “% Activation” value at ΔF508-CFTR [1] came out at 422.55%; on ΔF508-CFTR [2], 217.9%. Moreover, the EC50 on ΔF508-CFTR [1] came out at 565 nM; on ΔF508-CFTR [2] it was 1060 nM.
On the same counts, the results for `CC(C)c1nn(-c2ccc(F)cc2)c2nc(C(=O)NS(C)(=O)=O)cc(OCC3(C)COC3)c12` [Compound 293, 1-(4-fluorophenyl)-N-(methanesulfonyl)-4-[(3-methyloxetan-3-yl)methoxy]-3-(propan-2-yl)-1H-pyrazolo[3,4-b]pyridine-6-carboxamide] are 317.1%, 113.3%, 480 nM and 622 nM.
As for `CC(C)c1nn(-c2ccc(F)cc2)c2nc(C(=O)NS(C)(=O)=O)cc(OCC3CCCO3)c12` (stereo not shown) [Compound 295, 1-(4-fluorophenyl)-N-(methanesulfonyl)-4-[(oxolan-2-yl)methoxy]-3-(propan-2-yl)-1H-pyrazolo[3,4-b]pyridine-6-carboxamide], the “% Activation” value stood at 298.07% at ΔF508-CFTR [1] and 129.6% on ΔF508-CFTR [2]. Besides, the results for the EC50 on ΔF508-CFTR [1] and at ΔF508-CFTR [2] were 697 nM and 1050 nM, respectively.
On the same counts, the results for `CC(=O)N1CCC(COc2cc(C(=O)NS(C)(=O)=O)nc3c2c(C2CCC2)nn3-c2ccccc2)CC1` [Compound 296, 4-[(1-acetylpiperidin-4-yl)methoxy]-3-cyclobutyl-N-(methanesulfonyl)-1-phenyl-1H-pyrazolo[3,4-b]pyridine-6-carboxamide] are 329.13%, 154.7%, 168 nM and 396 nM.
On the same counts, the results for `COCC1CCN(c2cc(C(=O)NS(=O)(=O)CCC(=O)N(C)C)nc3c2c(C2CCC2)nn3-c2ccccc2)CC1` [Compound 298, 3-cyclobutyl-N-[3-(dimethylamino)-3-oxopropane-1-sulfonyl]-4-[4-(methoxymethyl)piperidin-1-yl]-1-phenyl-1H-pyrazolo[3,4-b]pyridine-6-carboxamide] are 481.2%, 312.9%, 81 nM and 282 nM.
